Measurements published in patent publication US20050158805A1, “Toxicity test” (priority 2002, published 2005).

Columns and labels:
liver spheroids = assay: Spheroid cell spreading inhibition test (SCSIT) using fresh liver spheroids; format: cell-based, male Wistar rats; settings: for SCSIT result (spheroid cell spreading inhibition): fresh liver spheroids, batches A-C; for concentrations at which liver spheroid cell spreading is inhibited: liver spheroids, read from tables
Method: (§1) The inventors have developed a cell spreading inhibition test based on the observed spheroid cell growth, or “spreading” of cells in spheroids when the spheroids are grown on a suitable surface and at static state i.e. without shaking. […] This inhibition of cell spreading provides an indicator of toxicity.
(§2) According to a first aspect of the invention, there is provided an in vitro toxicity assay comprising: • a) exposing a spheroid sample to a selected concentration of a compound to be assayed; • b) incubating the spheroid sample for a suitable period of time; and • c) observing if spheroid cell spreading inhibition takes place. […] However, if there is observable cell spreading from one or more of the spheroids in the sample, this is a cell spreading inhibition negative (−) result.
(§3) In the following examples, fresh liver or HepG2 spheroids were used.
Liver spheroids were prepared from the liver of male Wistar rats by a two-step collagenase perfusion method described by Seglen P.O. ((1976). Preparation of isolated rat liver cells. Methods Cell. Biol. 13, 29-38) and modified by Lazar, A.; Peshwa, M. V., Wu, F. J., Chi, C. M., Cerra, F. B., and Hu, W. S. (1995). Extended liver-specific functions of procine hepatocyte spheroids entrapped in collagen gel. In Vitro Cell Biol Anim. 31, 340-346). Viability of the isolated liver cells was determined by tyrpan blue dye exclusion i.e. an aliquot of isolated liver cells was mixed with an equal volume of trypan blue dye (1.0% w/v in isotonic saline) and incubated at room temperature for a minimum period of 5 minutes. Only isolated liver cell preparations with viability above 80% were used to prepare liver spheroids. The cell suspension was diluted with culture medium (hepatocyte medium supplemented with 5% FCS, […] L-glutamine, 2 ng/ml insulin, 100 U/ml penicillin and 100 μg/ml streptomycin sulfate) to give a cell density of 5×10^5 cells/ml. The diluted cell suspension was dispersed into 6-well plates, 3 ml/well. The plates were incubated at 37° C., in a 5% CO2 incubator on a gyrotatory shaker (New Brunswick) at an initial rotation speed of 85 rpm for the first 24 hr and 77 rpm thereafter. The plates were rotated at this speed for the duration of the study (up to 45 days, but typically 2-10 days). 1.5 ml of old medium was replaced with 2.0 ml fresh medium for each well every other day. Media exchange was carried out over the duration of the study (up to 45 days, but typically 2-10 days).
(§4) 3 to 5 freshly prepared spheroids were transferred into each well of a 24 well plate and exposed to galactosamine at various concentrations as detailed in Tables 1 and 2. Two wells were used for each concentration of galactosamine. The spheroids were incubated in Hepatocyte medium (Sigma) supplemented with 10-15% FCS, […] L-glutamine, 100 U/ml penicillin and 100 μg/ml streptomycim sulfate, and placed in a 5% CO2 incubator at 37° C. and the effects on spheroid cell spreading inhibition observed after 48 hours exposure of the cells to galactosamine: […]

HepG2 spheroids = assay: Spheroid cell spreading inhibition test (SCSIT) using fresh HepG2 spheroids; format: cell-based, Human; settings: for SCSIT result (spheroid cell spreading inhibition): fresh HepG2 spheroids, batches A-C; for concentrations at which HepG2 spheroid cell spreading is inhibited: HepG2 spheroids, read from tables
Method: as §1, §2, §3
HepG2 cell line (Human Hepatocyte Carinomal cells, from ECACC) was cultured as a monolayer in a 75 cm^2 flask at an initial density of 10^2 cells/cm^2 in a culture medium containing MEM (Sigma) supplemented with 10% FBS, 200 nM L-Glutamine, 100 U/ml pencillin and 100 μg/ml streptomycin (GibcoBril). HepG2 cells of confluent flasks were detached by trypsin and pooled together to be counted by trypan blue dye excretion. The cell suspension was diluted with culture medium (MEM supplemented with 5% FBS, […] L-glutamine, 100 U/ml penicillin and 100 μg/ml streptomycin) to give 1×10^6 cell/ml cell suspension. The cell suspension was plated into 6-well plates, 3 ml/well. The plate was placed on a gyrotatory shaker (New Brunswick) at 83 rpm in a 37° C. CO2 incubator for the first 24 h, and then the rotation speed reduced to 77 rpm. After 6 DIV culture, spheroids were ready for use.
as §4

## O=C(O)Cc1ccccc1Nc1c(Cl)cccc1Cl [diclofenac]
Liver spheroids; 0.1 μM
  SCSIT result (spheroid cell spreading inhibition): −
Liver spheroids; 1 μM
  SCSIT result (spheroid cell spreading inhibition): −
Liver spheroids; 10 μM
  SCSIT result (spheroid cell spreading inhibition): −
Liver spheroids; 100 μM
  SCSIT result (spheroid cell spreading inhibition): −
Liver spheroids; 1000 μM
  SCSIT result (spheroid cell spreading inhibition): +
Liver spheroids; liver spheroid, 100 μM, 48 hours after exposure
  spheroid cell spreading inhibition (FIG. 4A): no spheroid cell spreading inhibition is observed
Liver spheroids; liver spheroid, 1000 μM, 48 hours after exposure
  spheroid cell spreading inhibition (FIG. 4B): spheroid cell spreading was inhibited
Liver spheroids
  concentrations at which liver spheroid cell spreading is inhibited: ≥ 1000 µM
HepG2 spheroids; 0.1 μM
  SCSIT result (spheroid cell spreading inhibition): −
HepG2 spheroids; 1 μM
  SCSIT result (spheroid cell spreading inhibition): −
HepG2 spheroids; 10 μM
  SCSIT result (spheroid cell spreading inhibition): −
HepG2 spheroids; 100 μM
  SCSIT result (spheroid cell spreading inhibition): −
HepG2 spheroids; 1000 μM
  SCSIT result (spheroid cell spreading inhibition): +
HepG2 spheroids
  concentrations at which HepG2 spheroid cell spreading is inhibited: ≥ 1000 µM

## N[C@H]1C(O)O[C@H](CO)[C@H](O)[C@@H]1O (stereo partly drawn) [galactosamine]
Liver spheroids; 4 mM, 48 hours exposure
  SCSIT result (spheroid cell spreading inhibition): −
Liver spheroids; 10 mM, 48 hours exposure
  SCSIT result (spheroid cell spreading inhibition): −
Liver spheroids; 16 mM, 48 hours exposure
  SCSIT result (spheroid cell spreading inhibition): −
Liver spheroids; 20 mM, 48 hours exposure
  SCSIT result (spheroid cell spreading inhibition): +
Liver spheroids; 40 mM, 48 hours exposure
  SCSIT result (spheroid cell spreading inhibition): +
Liver spheroids; liver spheroid, 16 mM, 48 hours after exposure
  spheroid cell spreading inhibition (FIG. 2B): no spheroid cell spreading inhibition is observed
Liver spheroids; liver spheroid, 40 mM, 48 hours after exposure
  spheroid cell spreading inhibition (FIG. 2C): spheroid cell spreading was inhibited
Liver spheroids
  concentrations at which liver spheroid cell spreading is inhibited: ≥ 20000 µM
HepG2 spheroids; 4 mM, 48 hours exposure
  SCSIT result (spheroid cell spreading inhibition): −
HepG2 spheroids; 10 mM, 48 hours exposure
  SCSIT result (spheroid cell spreading inhibition): −
HepG2 spheroids; 16 mM, 48 hours exposure
  SCSIT result (spheroid cell spreading inhibition): +
HepG2 spheroids; 20 mM, 48 hours exposure
  SCSIT result (spheroid cell spreading inhibition): +
HepG2 spheroids; 40 mM, 48 hours exposure
  SCSIT result (spheroid cell spreading inhibition): +
HepG2 spheroids
  concentrations at which HepG2 spheroid cell spreading is inhibited: ≥ 16000 µM

## CC(=O)Nc1ccc(O)cc1 [paracetamol]
Liver spheroids; 5 μM
  SCSIT result (spheroid cell spreading inhibition): −
Liver spheroids; 50 μM
  SCSIT result (spheroid cell spreading inhibition): −
Liver spheroids; 500 μM
  SCSIT result (spheroid cell spreading inhibition): −
Liver spheroids; 5 mM
  SCSIT result (spheroid cell spreading inhibition): −
Liver spheroids; 50 mM
  SCSIT result (spheroid cell spreading inhibition): +
Liver spheroids; liver spheroid, 5 mM, 48 hours after exposure
  spheroid cell spreading inhibition (FIG. 5A): no spheroid cell spreading inhibition is observed
Liver spheroids; liver spheroid, 50 mM, 48 hours after exposure
  spheroid cell spreading inhibition (FIG. 5B): spheroid cell spreading was inhibited
Liver spheroids
  concentrations at which liver spheroid cell spreading is inhibited: ≥ 50000 µM
HepG2 spheroids; 5 μM
  SCSIT result (spheroid cell spreading inhibition): −
HepG2 spheroids; 50 μM
  SCSIT result (spheroid cell spreading inhibition): −
HepG2 spheroids; 500 μM
  SCSIT result (spheroid cell spreading inhibition): −
HepG2 spheroids; 5 mM
  SCSIT result (spheroid cell spreading inhibition): −
HepG2 spheroids; 50 mM
  SCSIT result (spheroid cell spreading inhibition): +
HepG2 spheroids
  concentrations at which HepG2 spheroid cell spreading is inhibited: ≥ 50000 µM
